Assay results published in patent US8420657B2 (Novartis AG, priority 2008, dated 2013).
pIC50: −log10 of the molar value.

Key:
GST-JAK2(808-1132) = biological target: T1, GST-JAK2(808-1132) (Homo sapiens, UniProt O60674); assay: JAK2 kinase assay (Caliper mobility shift, LabChip 3000); type: biochemical
T1 construct: GST-JAK2(808-1132); purchased Invitrogen (Carlsbad, USA) #4288
Outline: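 Recombinant GST-JAK2(808-1132) kinase domain with FITC-labelled JAK3tide peptide substrate and ATP; 60 min at 30 °C, EDTA stop. Substrate/product ratio read by microfluidic mobility shift; compounds at 8 final concentrations, 10 to 0.003 μM.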

[1] = tested on: JAK1/JAK2-dependent nuclear translocation of STAT1-GFP in HT1080 fibrosarcoma cells; assay: STAT1 nuclear translocation assay (Cellomics), IFN-γ stimulated HT1080 STAT1-GFP cells; type: cell-based; conditions: Homo sapiens, HT-1080, STAT1 translocation pathway
Outline: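 HT1080 cells stably expressing STAT1-GFP, pre-treated 30 min with compound (10 μM–0.003 μM, 0.1% DMSO), then stimulated 2 h with 100 ng/ml IFN-γ, fixed and Hoechst-stained. Nuclear-cytoplasmic GFP differential imaged over ≥1000 cells/well, normalised to unstimulated and DMSO-stimulated wells for IC50.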

T1 sequence (O60674 808-1132): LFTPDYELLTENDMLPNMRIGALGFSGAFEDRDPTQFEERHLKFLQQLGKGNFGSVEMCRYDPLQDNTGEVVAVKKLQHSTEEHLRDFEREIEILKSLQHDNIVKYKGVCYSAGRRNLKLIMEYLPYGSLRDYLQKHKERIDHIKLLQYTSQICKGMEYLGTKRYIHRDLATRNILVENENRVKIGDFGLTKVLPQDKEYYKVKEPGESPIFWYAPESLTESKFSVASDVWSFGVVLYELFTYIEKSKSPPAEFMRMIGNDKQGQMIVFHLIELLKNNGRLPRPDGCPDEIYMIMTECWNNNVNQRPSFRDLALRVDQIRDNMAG

SMILES	pIC50 (GST-JAK2(808-1132))	pIC50 [1]
CC(=O)N1CCN(Cc2c(F)cc(-n3ccc4cnc(Nc5ccc(F)c(C)c5)nc43)cc2F)CC1 [Example 133, 1-(4-{2,6-Difluoro-4-[2-(4-fluoro-3-methyl-phenylamino)-pyrrolo[2,3-d]pyrimidin-7-yl]-benzyl}-piperazin-1-yl)-ethanone]	8.15	6.24
CCN1CCN(Cc2c(F)cc(-n3ccc4cnc(Nc5ccc(F)c(C)c5)nc43)cc2F)CC1=O [Example 134, 4-{2,6-Difluoro-4-[2-(4-fluoro-3-methyl-phenylamino)-pyrrolo[2,3-d]pyrimidin-7-yl]-benzyl}-1-ethyl-piperazin-2-one]	7.69	5.73
Cc1cc(Nc2ncc3ccn(-c4cc(F)c(CN5CCS(=O)(=O)CC5)c(F)c4)c3n2)ccc1F [Example 137, {7-[4-(1,1-Dioxido-thiomorpholin-4-ylmethyl)-3,5-difluoro-phenyl]-7H-pyrrolo[2,3-d]pyrimidin-2-yl}-(4-fluoro-3-methyl-phenyl)-amin]	8.48	6.82
O=C(c1ccc(Nc2ncc3ccn(-c4cc(F)c(CN5CCOCC5)c(F)c4)c3n2)cc1)N1CCOCC1 [Example 138, {4-[7-(3,5-Difluoro-4-morpholin-4-ylmethyl-phenyl)-7H-pyrrolo[2,3-d]pyrimidin-2-ylamino]-phenyl}-morpholin-4-yl-methanone]	> 8.52	6.78
CN1CCN(C(=O)Cc2ccc(-n3ccc4cnc(Nc5ccc(C(F)(F)F)cc5)nc43)cc2)CC1 [Example 145, 1-(4-Methyl-piperazin-1-yl)-2-{4-[2-(4-trifluoromethyl-phenylamino)-pyrrolo[2,3-d]pyrimidin-7-yl]-phenyl}-ethanone]	8.15	6.44
Cc1ccc(Nc2ncc3ccn(-c4ccc(CC(=O)N5CCN(C)CC5)cc4)c3n2)cc1C [Example 148, 2-{4-[2-(3,4-Dimethyl-phenylamino)-pyrrolo[2,3-d]pyrimidin-7-yl]-phenyl}-1-(4-methyl-piperazin-1-yl)-ethanone]	8.10	7.33
Cc1ccc(Nc2ncc3ccn(-c4ccc(CC(=O)N5CCN(C)CC5)cc4)c3n2)cc1 [Example 149, 1-(4-Methyl-piperazin-1-yl)-2-[4-(2-p-tolylamino-pyrrolo[2,3-d]pyrimidin-7-yl)-phenyl]-ethanone]	6.89	5.82
COc1cc(Nc2ncc3ccn(-c4ccc(CC(=O)N5CCN(C)CC5)cc4)c3n2)ccc1F [Example 150, 2-{4-[2-(4-Fluoro-3-methoxy-phenylamino)-pyrrolo[2,3-d]pyrimidin-7-yl]-phenyl}-1-(4-methyl-piperazin-1-yl)-ethanone]	8.35	7.19
COc1cc(Nc2ncc3ccn(-c4ccc(C(=O)N5CCN(C)CC5)c(F)c4)c3n2)ccc1F [Example 154, {2-Fluoro-4-[2-(4-fluoro-3-methoxy-phenylamino)-pyrrolo[2,3-d]pyrimidin-7-yl]-phenyl}-(4-methyl-piperazin-1-yl)-methanone]	6.60	5.19
Cc1ccc(Nc2ncc3ccn(-c4ccc(C(=O)N5CCN(C)CC5)c(F)c4)c3n2)cc1C [Example 155, {4-[2-(3,4-Dimethyl-phenylamino)-pyrrolo[2,3-d]pyrimidin-7-yl]-2-fluoro-phenyl}-(4-methyl-piperazin-1-yl)-methanone]	6.70	5.48
Cc1ccc(Nc2ncc3ccn(-c4ccc(CC(=O)N5CCS(=O)(=O)CC5)c(F)c4)c3n2)cc1C [Example 156, 2-{4-[2-(3,4-Dimethyl-phenylamino)-pyrrolo[2,3-d]pyrimidin-7-yl]-2-fluoro-phenyl}-1-(1,1-dioxido-1-thiomorpholin-4-yl)-ethanone]	7.89	7.22
CN1CCN(C(=O)c2ccc(Nc3ncc4ccn(-c5ccc(CN6CCOCC6)c(F)c5)c4n3)cc2F)CC1 [Example 158, {2-Fluoro-4-[7-(3-fluoro-4-morpholin-4-ylmethyl-phenyl)-7H-pyrrolo[2,3-d]pyrimidin-2-ylamino]-phenyl}-(4-methyl-piperazin-1-yl)-methanone]	8.03	6.58
CCN1CCN(C(=O)C2(c3ccc(-n4ccc5cnc(Nc6ccc(C)c(C)c6)nc54)cc3)CC2)CC1 [Example 159, (1-{4-[2-(3,4-Dimethyl-phenylamino)-pyrrolo[2,3-d]pyrimidin-7-yl]-phenyl}-cyclopropyl)-(4-ethyl-piperazin-1-yl)-methanone]	7.33	5.95
Cc1ccc(Nc2ncc3cc(C)n(-c4ccc(CC(=O)N5CCN(C)CC5)cc4)c3n2)cc1C [Example 161, 2-{4-[2-(3,4-Dimethyl-phenylamino)-6-methyl-pyrrolo[2,3-d]pyrimidin-7-yl]-phenyl}-1-(4-methyl-piperazin-1-yl)-ethanone]	6.06	5.03
COc1cc(Nc2ncc3cc(C)n(-c4ccc(CC(=O)N5CCN(C)CC5)cc4)c3n2)ccc1F [Example 162, 2-{4-[2-(4-Fluoro-3-methoxy-phenylamino)-6-methyl-pyrrolo[2,3-d]pyrimidin-7-yl]-phenyl}-1-(4-methyl-piperazin-1-yl)-ethanone]	6.52	5.01

Second part, the compound after the results:

pIC50 (GST-JAK2(808-1132))	pIC50 [1]	SMILES
8.31	6.38	COCc1ccc(Nc2ncc3ccn(-c4cc(F)c(CN5CCOCC5)c(F)c4)c3n2)cc1 [Example 135, [7-(3,5-Difluoro-4-morpholin-4-ylmethyl-phenyl)-7H-pyrrolo[2,3-d]pyrimidin-2-yl]-(4-methoxymethyl-phenyl)-amine]
7.96	6.11	N#Cc1ccc(Nc2ncc3ccn(-c4cc(F)c(CN5CCOCC5)c(F)c4)c3n2)cc1 [Example 136, 4-[7-(3,5-Difluoro-4-morpholin-4-ylmethyl-phenyl)-7H-pyrrolo[2,3-d]pyrimidin-2-ylamino]-benzonitrile]
7.96	6.20	Cc1ccc(Nc2ncc3ccn(-c4ccc(C[S+](C)[O-])cc4)c3n2)cc1 (stereo not shown) [Example 139, [7-(4-Methanesulfinylmethyl-phenyl)-7H-pyrrolo[2,3-d]pyrimidin-2-yl]-p-tolyl-amine]
8.35	6.51	Cc1ccc(Nc2ncc3ccn(-c4ccc(CS(C)(=O)=O)cc4)c3n2)cc1 [Example 140, [7-(4-Methanesulfonylmethyl-phenyl)-7H-pyrrolo[2,3-d]pyrimidin-2-yl]-p-tolyl-amine]
> 8.52	6.89	Cc1ccc(Nc2ncc3ccn(-c4ccc(CC(=O)N5CCOCC5)cc4)c3n2)cc1 [Example 141, 1-Morpholin-4-yl-2-[4-(2-p-tolylamino-pyrrolo[2,3-d]pyrimidin-7-yl)-phenyl]-ethanone]
> 8.52	7.00	COc1cc(Nc2ncc3ccn(-c4ccc(CC(=O)N5CCOCC5)cc4)c3n2)ccc1F [Example 142, 2-{4-[2-(4-Fluoro-3-methoxy-phenylamino)-pyrrolo[2,3-d]pyrimidin-7-yl]-phenyl}-1-morpholin-4-yl-ethanone]
> 8.52	6.71	O=C(Cc1ccc(-n2ccc3cnc(Nc4ccccc4)nc32)cc1)N1CCOCC1 [Example 143, 1-Morpholin-4-yl-2-[4-(2-phenylamino-pyrrolo[2,3-d]pyrimidin-7-yl)-phenyl]-ethanone]
8.33	6.32	O=C(Cc1ccc(-n2ccc3cnc(Nc4ccc(C(F)(F)F)cc4)nc32)cc1)N1CCOCC1 [Example 144, 1-Morpholin-4-yl-2-{4-[2-(4-trifluoromethyl-phenylamino)-pyrrolo[2,3-d]pyrimidin-7-yl]-phenyl}-ethanone]
7.52	5.60	Cc1ccc(Nc2ncc3ccn(-c4ccc(CN5CCOCC5)cc4)c3n2)cc1 [Example 146, [7-(4-Morpholin-4-ylmethyl-phenyl)-7H-pyrrolo[2 3-d]pyrimidin-2-yl]-p-tolyl-amine]
> 8.52	7.48	CCOc1ccc(Nc2ncc3ccn(-c4ccc(CN5CCOCC5)cc4)c3n2)cc1OCC [Example 147, (3,4-Diethoxy-phenyl)-[7-(4-morpholin-4-ylmethyl-phenyl)-7H-pyrrolo[2,3-d]pyrimidin-2-yl]-amine]
8.46	6.77	Cc1ccc(Nc2ncc3ccn(-c4ccc(C(=O)N5CCOCC5)c(F)c4)c3n2)cc1C [Example 152, {4-[2-(3,4-Dimethyl-phenylamino)-pyrrolo[2,3-d]pyrimidin-7-yl]-2-fluoro-phenyl}-morpholin-4-yl-methanone]
> 8.52	7.76	O=C(c1ccc(Nc2ncc3ccn(-c4ccc(CN5CCS(=O)(=O)CC5)cc4)c3n2)cc1)N1CCOCC1 [Example 153, (4-{7-[4-(1,1-Dioxido-thiomorpholin-4-ylmethyl)-phenyl]-7H-pyrrolo[2,3-d]pyrimidin-2-ylamino}-phenyl)-morpholin-4-yl-methanone]
8.21	6.89	O=C(c1ccc(Nc2ncc3ccn(-c4ccc(CN5CCOCC5)c(F)c4)c3n2)cc1)N1CCOCC1 [Example 157, {4-[7-(3-Fluoro-4-morpholin-4-ylmethyl-phenyl)-7H-pyrrolo[2,3-d]pyrimidin-2-ylamino]-phenyl}-morpholin-4-yl-methanone]
7.38	6.01	Cc1ccc(Nc2ncc3ccn(-c4ccc(CN5CCOCC5)cc4)c3n2)cc1C [Example 160, (3,4-Dimethyl-phenyl)-[7-(4-morpholin-4-ylmethyl-phenyl)-7H-pyrrolo[2,3-d]pyrimidin-2-yl]-amine]
